Here are results for 10 compounds from ChEMBL document CHEMBL1154345, “Discovery of tricyclic 5,6-dihydro-1H-pyridin-2-ones as novel, potent, and orally bioavailable inhibitors of HCV NS5B polymerase” (Bioorg Med Chem Lett, 2009).

In data set [1] the test system is Hepatitis C virus. The experiment in a line: microbe, parasite or virus in culture. The class given is functional, organism-based, Hepacivirus hominis, genotype 1b, Huh-luc/neo-ET. Conditions: Hepatitis C virus, genotype 1b, Huh-luc/neo-ET, 72 h.
Description: Antiviral activity against HCV-1b infected human Huh-luc/neo-ET replicon cells after 72 hrs by luciferase based replicon assay
Data set [2] relates to Cynomolgus monkey. As to the kind of experiment: AUC (0 to infinity) in cynomolgus monkey at 0.5 mg/kg, po. As to conditions: in vivo. The class given is ADME, organism-based, Macaca fascicularis, Plasma. Also noted: time infinity, dose 0.5 mg/kg, route oral.
Data set [3] in a line: in vitro. As to conditions: rhesus monkey, microsomes.
Description: Metabolic stability in monkey liver microsomes assessed as half life at 5 uM
A short description of data set [4]: in vitro. As to conditions: rhesus monkey, microsomes, Stability.
Description: Metabolic stability in monkey liver microsomes assessed as compound remaining after 60 mins at 5 uM
Data set [5] is described as follows: Clearance in cynomolgus monkey at 0.5 mg/kg, iv. Also noted: dose 0.5 mg/kg, route intravenous. As to conditions: in vivo. The data set is classed as ADME, organism-based, Macaca fascicularis.
A short description of data set [6]: Cytotoxicity against human HuH7 cells assessed as GAPDH release. The data set is classed as cell-based, Huh-7.
A short description of data set [7]: Oral bioavailability in cynomolgus monkey at 0.5 mg/kg. The class given is ADME, organism-based, Macaca fascicularis. As to conditions: in vivo.
Data set [8] deals with Cynomolgus monkey. As to the kind of experiment: AUC (0 to infinity) in cynomolgus monkey at 0.5 mg/kg, iv. The class given is ADME, organism-based, Macaca fascicularis, Plasma. Also noted: time infinity, dose 0.5 mg/kg, route intravenous. As to conditions: in vivo.
The test system of data set [9] is Hepatitis C virus. The experiment in a line: microbe, parasite or virus in culture. The class given is functional, organism-based, Hepacivirus hominis, subtype 1a, Huh-lunet. Conditions: Hepatitis C virus, subtype 1a, Huh-lunet, 96 h.
Description: Antiviral activity against HCV-1a infected in human Huh-lunet cells after 4 days by luciferase based replicon assay
A short description of data set [10]: in vitro. As to conditions: human, t1/2.
Data set [11] is described as follows: in vitro. As to conditions: human.
Description: Metabolic stability in human liver microsomes assessed as compound remaining after 60 mins at 1 uM

As to `CS(=O)(=O)Nc1ccc2c(c1)S(=O)(=O)N=C(C1=C(O)[C@H]3[C@@H]4CC[C@@H](C4)[C@H]3N(Cc3ccc(F)cc3)C1=O)N2`, the EC50 (in general, the concentration at which the effect is half-maximal) was found to be 550 nM with Hepatitis C virus [1] and 5400 nM with Hepatitis C virus [9]. Further, the AUC (commonly concentration integrated over time) is 163 ng·h/mL in the data set with Cynomolgus monkey [2] and 1390 ng·h/mL with Cynomolgus monkey [8]. For the same compound, in “in vitro [3]”, the half-life (in general, the time needed for the level to fall by half in the phase considered) at 5 µM was over 1 h. In the data set “in vitro [4]”, the fraction remaining (usually the share of the starting amount still present when the sample was taken) at 1 h, 5 µM is 58%. The clearance – broadly, a measure of how efficiently the substance is removed, as volume per time – in data set [5] was found to be 6.5 mL/min/kg. For the same compound, in [6], the cytotoxic concentration (CC50) – broadly, the concentration that lowers cell viability or growth by half – is over 33000 nM. The bioavailability (usually dose-corrected exposure relative to a reference, in per cent) in data set [7] worked out at 12%. The same compound returned a half-life at 1 µM in the data set “in vitro [10]” (microsomes) of 0.333 h.
In the case of `CS(=O)(=O)Nc1ccc2c(c1)S(=O)(=O)N=C(C1=C(O)[C@@H]3[C@@H]4CC[C@@H](C4)[C@@H]3N(Cc3ccc(F)cc3)C1=O)N2`, the EC50 with Hepatitis C virus [1] stood at 7 nM; with Hepatitis C virus [9] it was 65 nM. The CC50 in [6] is over 1000 nM. In addition, in the data set “in vitro [11]” (microsomes), the share remaining at 1 h, 1 µM is 85%. This compound also returned a half-life at 1 µM in “in vitro [10]” (microsomes) of over 1 h.
Consider `COc1cc(CN2C(=O)C(C3=NS(=O)(=O)c4cc(NS(C)(=O)=O)ccc4N3)=C(O)[C@@H]3C4CCC(CC4)[C@@H]32)ccc1F`, for which the EC50 in the data set with Hepatitis C virus [1] worked out at 2 nM; with Hepatitis C virus [9], 21 nM. Moreover, the amount remaining at 1 h, 1 µM in “in vitro [11]” (liver microsomes) was 67%. In “in vitro [10]” (liver microsomes), this compound displayed a half-life at 1 µM of over 1 h.
For `CS(=O)(=O)Nc1ccc2c(c1)S(=O)(=O)N=C(C1=C(O)[C@@H]3C4CCC(CC4)[C@@H]3N(Cc3ccc(F)c(F)c3F)C1=O)N2` the same measures were 8 nM, 150 nM, 100% and over 1 h.
For `CS(=O)(=O)Nc1ccc2c(c1)S(=O)(=O)N=C(C1=C(O)[C@@H]3C4CCC(CC4)[C@@H]3N(Cc3ccc(F)c(F)c3)C1=O)N2` the same measures were 2 nM, 23 nM, 81% and over 1 h.
For `CS(=O)(=O)Nc1ccc2c(c1)S(=O)(=O)N=C(C1=C(O)[C@@H]3C4CCC(CC4)[C@@H]3N(Cc3ccc(F)c(Cl)c3)C1=O)N2` the same measures were 2 nM, 19 nM, 100% and over 1 h.
For `CS(=O)(=O)Nc1ccc2c(c1)S(=O)(=O)N=C(C1=C(O)[C@@H]3C4CCC(CC4)[C@@H]3N(Cc3ccc(F)cc3F)C1=O)N2`, the EC50 worked out at 2 nM in the data set on Hepatitis C virus [1] and 280 nM in the data set with Hepatitis C virus [9]. In addition, in the data set “in vitro [11]” (liver microsomes), the amount remaining at 1 h, 1 µM was determined as 100%. In “in vitro [10]” (liver microsomes), this compound gave a half-life at 1 µM of over 1 h.
As to `Cc1cc(CN2C(=O)C(C3=NS(=O)(=O)c4cc(NS(C)(=O)=O)ccc4N3)=C(O)[C@@H]3C4CCC(CC4)[C@@H]32)ccc1F`, the EC50 amounted to 2 nM with Hepatitis C virus [1] and 16 nM with Hepatitis C virus [9]. This compound also returned an amount remaining at 1 h, 1 µM in the data set “in vitro [11]” (liver microsomes) of 81%. The compound further displayed a half-life at 1 µM in the data set “in vitro [10]” (liver microsomes) of over 1 h.
Taken in the same sequence, the figures for `CS(=O)(=O)Nc1ccc2c(c1)S(=O)(=O)N=C(C1=C(O)[C@@H]3C4CCC(CC4)[C@@H]3N(Cc3ccc(F)cc3Cl)C1=O)N2` were 1 nM, 25 nM, 100% and over 1 h.
Taken in the same sequence, the figures for `COc1cccc(CN2C(=O)C(C3=NS(=O)(=O)c4cc(NS(C)(=O)=O)ccc4N3)=C(O)[C@@H]3C4CCC(CC4)[C@@H]32)c1` were 5 nM, 270 nM, 50% and over 1 h.
